Measurements: patent US20260022246A1, “COLORING AGENT COMPOSITION, FILM, OPTICAL FILTER, AND NEAR INFRARED ABSORBING COMPOUND” (FUJIFILM Corporation, priority 2023, published 2026)

Key:
Format in all cases: physicochemical
[1] = Evaluation of absorption spectrum (maximal absorption wavelength in chloroform solution); conditions: for λmax (maximal absorption wavelength): chloroform solution, 3.0×10^−5 mol/L, 1 mm quartz cell; for Near infrared absorbing property: grade of λmax in chloroform solution
Method: The specific compound is diluted with chloroform to a concentration of […], and an absorbance of the obtained sample solution is measured with a spectrophotometer (UV-3600 Plus, manufactured by Shimadzu Corporation) using a 1 mm quartz cell. A maximal absorption wavelength (Amax) is measured from an absorption spectrum of the sample solution.
For each of Exemplary Compounds shown in Tables 1 and 2, a sample solution was prepared by diluting the compound with chloroform to a concentration of 3.0×10^−5 mol/L, and near infrared absorbability was evaluated.
For each sample solution, an absorbance was measured in a 1 mm quartz cell using a spectrophotometer (UV-3600 Plus, manufactured by Shimadzu Corporation).
A maximal absorption wavelength (Amax) was measured from the absorption spectrum of each sample solution. The results are shown in Tables 1 and 2, and the wavelength of Amax was evaluated according to the following standard.
• A: Amax was 1,150 nm or more. • B: Amax was less than 1,150 nm.

[2] = Evaluation of solubility in methyl ethyl ketone (MEK); set-up: key to Solubility in solvent: A: 1 g or more of the compound was stably dissolved in 300 g of MEK; B: 1 g was not dissolved in 300 g of MEK; X: decomposition was observed by measuring the absorption spectrum after the dissolution; conditions: for Solubility in solvent: stirred at room temperature for 30 minutes
Method: For each of Exemplary Compounds shown in Tables 1 and 2, a predetermined amount of the compound was added to a solvent of methyl ethyl ketone (MEK), and solubility was evaluated according to the following standard by stirring the mixture at room temperature for 30 minutes.
• A: 1 g or more of the compound was stably dissolved in 300 g of MEK. • B: 1 g was not dissolved in 300 g of MEK. • X: decomposition was observed by measuring the absorption spectrum after the dissolution.

[3] = Evaluation of heat stability of polystyrene resin film (hot plate 180° C., 5 minutes); conditions: for Heat stability of resin composition: polystyrene resin film on glass, hot plate 180° C. for 5 minutes, absorbance reduction rate at λmax
Method: 30 mg of each of Exemplary Compounds and the comparative compounds described in the tables was dissolved in 8.9 g of methyl ethyl ketone and 1.1 g of a polystyrene resin (manufactured by Sigma-Aldrich Co. LLC) to prepare a resin composition.
The obtained resin composition was spin-coated on a glass substrate to form a coating film, and the obtained coating film was dried at 60° C. for 2 minutes to produce a resin film. […]
• A: absorbance reduction rate of Amax was less than 5%. • B: absorbance reduction rate of Amax was 5% or more and less than 10%. • C: absorbance reduction rate of Amax was 10% or more and less than 50%. • D: absorbance reduction rate of Amax was 50% or more. • X: solubility was insufficient, so that the film cannot be produced, which was not evaluable.

[4] = Evaluation of kneading: transmittance at 1,150 nm of melt-kneaded resin film; conditions: kneaded with resin under the thermal conditions
Method: A resin composition, which was a kneaded material of the specific compound or the comparative compound and a resin, was prepared, and the following kneading evaluation was performed.
The specific compounds and comparative compounds shown in Table 3 below were weighed in the contents shown in Table 3, and a sample obtained by shaking and mixing 12.0 g of the resin shown in Table 3 was prepared. A polycarbonate resin (indicated as Polycarbonate in Table 3), a polystyrene resin, and an acrylic resin were used as the resin. In Table 3, the polycarbonate resin is indicated as Polycarbonate, the polystyrene resin is indicated as Polystyrene, and the acrylic resin is indicated as Acrylic.
The obtained sample was put into a supply port of a biaxial kneader (Labo Plastomill, manufactured by Toyo Seiki Seisaku-sho, Ltd.) and subjected to melt-kneading to obtain a resin composition as a kneaded material. The obtained resin composition was pressed using a heat press machine to obtain a resin film having a thickness of 0.15 mm.
In a case where a polycarbonate resin (SD PORYCA (registered trademark) 301-10, manufactured by Sumika Polycarbonate Co., Ltd.) was used as the resin, the melt-kneading temperature was set to 260° C. and the hot press temperature was set to 230° C.
In a case where a polystyrene resin (manufactured by Sigma-Aldrich Co. LLC) was used as the resin, the melt-kneading temperature was set to 200° C. and the hot press temperature was set to 180° C.
In a case where an acrylic resin (G1000, manufactured by Kuraray Co., Ltd.) was used as the resin, the melt-kneading temperature was set to 180° C. and the hot press temperature was set to 160° C.
A transmittance of the obtained resin film at a wavelength of 1,150 nm was measured with a spectrophotometer, and the measured value was evaluated according to the following standard. In Table 3, it is described in “Evaluation of transmittance at wavelength of 1150 nm”. As the transmittance is lower, the near infrared blocking property is better. […]

λmax (maximal absorption wavelength) [1] [nm]	Near infrared absorbing property [1]	heat stability (in words, kneading evaluation) [4]	solubility in a solvent (in words) [2]	heat stability of the resin composition (in words) ([3]; polystyrene resin film)	absorbance at the maximal absorption wavelength on heating ([3]; resin film, heating at 130° C. as printed)	Structure (SMILES)	stability after dissolving in a solvent (measurement of the absorption spectrum) [2]	Solubility in solvent [2]	Heat stability of resin composition [3]
1051	B (Amax was less than 1,150 nm)	low				CCCCN(CCCC)c1ccc(N(c2ccc(N(CCCC)CCCC)cc2)c2ccc([N+](=C3C=CC(=[N+](c4ccc(N(c5ccc(N(CCCC)CCCC)cc5)c5ccc(N(CCCC)CCCC)cc5)cc4)c4ccc(N(c5ccc(N(CCCC)CCCC)cc5)c5ccc(N(CCCC)CCCC)cc5)cc4)C=C3)c3ccc(N(c4ccc(N(CCCC)CCCC)cc4)c4ccc(N(CCCC)CCCC)cc4)cc3)cc2)cc1.[F][Sb-]([F])([F])([F])([F])[F].[F][Sb-]([F])([F])([F])([F])[F] [Comparative compound 3, reference compound]	decomposed	X	D (absorbance reduction rate of Amax was 50% or more)
1100	B (Amax was less than 1,150 nm)	low	favorable	low	significantly reduced	CCCCN(CCCC)c1ccc([N+](=C2C=CC(=[N+](c3ccc(N(CCCC)CCCC)cc3)c3ccc(N(CCCC)CCCC)cc3)C=C2)c2ccc(N(CCCC)CCCC)cc2)cc1.[F][Sb-]([F])([F])([F])([F])[F].[F][Sb-]([F])([F])([F])([F])[F] [Comparative compound 4, reference compound]		A (1 g or more of the compound was stably dissolved in 300 g of MEK)	D (absorbance reduction rate of Amax was 50% or more)

Structure (SMILES)	λmax (maximal absorption wavelength) [1] [nm]	Near infrared absorbing property [1]	heat stability (in words, kneading evaluation) [4]	solubility in a solvent (in words) [2]	heat stability of the resin composition (in words) ([3]; polystyrene resin film)	absorbance at the maximal absorption wavelength on heating ([3]; resin film, heating at 130° C. as printed)	stability after dissolving in a solvent (measurement of the absorption spectrum) [2]	Solubility in solvent [2]	Heat stability of resin composition [3]
Cc1ccc(N(c2ccc(C)cc2)c2ccc([N+](=C3C=CC(=[N+](c4ccc(N(c5ccc(C)cc5)c5ccc(C)cc5)cc4)c4ccc(N(c5ccc(C)cc5)c5ccc(C)cc5)cc4)C=C3)c3ccc(N(c4ccc(C)cc4)c4ccc(C)cc4)cc3)cc2)cc1 [Comparative compound 2, reference compound]	1250	A (Amax was 1,150 nm or more)	low				decomposed	X	D (absorbance reduction rate of Amax was 50% or more)
